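Cultured in 96-well plates, cells were exposed to test compound for 48 hours across five concentrations. GI50 marks 50% less growth.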 Active and inactive are the calls of the source. No stated cut-off is given here; in the data, active = GI50 up to about 1.1 µM and inactive = higher.
How the values were obtained:
Assay in all cases: growth of human tumour cells (NCI), 48 h
786-0 = system: 786-0
ACHN = system: ACHN
CAKI-1 = system: CAKI-1
HCT-15 = system: HCT-15
OVCAR-3 = system: OVCAR-3
OVCAR-4 = system: OVCAR-4
OVCAR-8 = system: OVCAR-8
RPMI-8226 = system: RPMI-8226
SF-295 = system: SF-295
SK-MEL-28 = system: SK-MEL-28
SNB-75 = system: SNB-75
U-251 = system: U-251
LOX IMVI = system: LOX IMVI
MCF7 = system: MCF7
NCI-H522 = system: NCI-H522
NCI/ADR-RES = system: NCI/ADR-RES
SN12C = system: SN12C
T47D = system: T47D

| Compound | GI50 (786-0) | GI50 (ACHN) | GI50 (CAKI-1) | GI50 (HCT-15) | GI50 (OVCAR-3) | GI50 (OVCAR-4) | GI50 (OVCAR-8) | GI50 (RPMI-8226) | GI50 (SF-295) | GI50 (SK-MEL-28) | GI50 (SNB-75) | GI50 (U-251) | GI50 (LOX IMVI) | GI50 (MCF7) | GI50 (NCI-H522) | GI50 (NCI/ADR-RES) | GI50 (SN12C) | GI50 (T47D) |
| --- | --- | --- | --- | --- | --- | --- | --- | --- | --- | --- | --- | --- | --- | --- | --- | --- | --- | --- |
| CC(=O)O[C@H]1CC[C@@]2(C)C(=CC[C@@H]3C2CC[C@]2(C)Nc4[nH]ncc4CC32)C1 (stereo partly drawn) | > 100 µM (inactive) | > 100 µM (inactive) | > 100 µM (inactive) | 17.5 µM | 19.2 µM (inactive) | 18.5 µM (inactive) | 29.9 µM (inactive) | 25.5 µM (inactive) | 42.2 µM (inactive) | 32.2 µM (inactive) | 85.9 µM (inactive) | 15 µM (inactive) | – | – | – | – | – | – |
| CC1(C)N=C(N)N=C(N)N1c1ccc(OCC(=O)Nc2cccc(S(=O)(=O)F)c2)c(Cl)c1 | 4.9 µM (inactive) | 30 µM (inactive) | 35.8 µM (inactive) | 9.75 µM | 18.5 µM (inactive) | > 100 µM (inactive) | 5.82 µM (inactive) | > 33.3 µM (inactive) | 10.2 µM (inactive) | > 70 µM (inactive) | 54.7 µM (inactive) | 13.6 µM (inactive) | 4.9 µM (inactive) | 6.03 µM (inactive) | 51.8 µM (inactive) | 59.6 µM (inactive) | 8 µM (inactive) | 27.2 µM (inactive) |
| CC(C)(C)C1CC[C@H]2c3c([nH]c4ccc(Br)cc34)[C@H]3C(=O)N(c4ccccc4)C(=O)[C@H]3[C@H]2C1 (stereo partly drawn) | 6.67 µM (inactive) | > 100 µM (inactive) | 53.7 µM (inactive) | – | 75.2 µM (inactive) | 11.2 µM (inactive) | 3.49 µM (inactive) | 98.2 µM (inactive) | 14 µM (inactive) | 41.1 µM (inactive) | 18.5 µM (inactive) | 10.4 µM (inactive) | 19.1 µM (inactive) | – | 19.4 µM (inactive) | – | 13.5 µM (inactive) | – |
| CCC(C)Cn1c(C)nc2c1C(=O)c1ccccc1C2=O (stereo not drawn) | 23.1 µM (inactive) | 36.1 µM (inactive) | – | 17.5 µM | 23.3 µM (inactive) | 38 µM (inactive) | 32.9 µM (inactive) | – | 38.8 µM (inactive) | 37.2 µM (inactive) | 28.6 µM (inactive) | 20.5 µM (inactive) | 19.4 µM (inactive) | – | 30 µM (inactive) | – | 36.1 µM (inactive) | – |
| CC1(C)C(=O)C(C)(C)C1=S | > 100 µM (inactive) | > 100 µM (inactive) | > 100 µM (inactive) | > 100 µM | > 100 µM (inactive) | > 100 µM (inactive) | > 100 µM (inactive) | > 100 µM (inactive) | > 100 µM (inactive) | > 100 µM (inactive) | 18.6 µM (inactive) | > 100 µM (inactive) | > 100 µM (inactive) | – | > 100 µM (inactive) | – | > 100 µM (inactive) | – |
| CCOP(=O)(C/C(O)=C1\C(=O)C(CCCNC(=O)OC(C)(C)C)N(Cc2ccc(OC)c(OC)c2)C1=O)OCC (stereo not drawn) | > 100 µM (inactive) | > 100 µM (inactive) | – | – | > 100 µM (inactive) | > 100 µM (inactive) | > 100 µM (inactive) | > 100 µM (inactive) | > 100 µM (inactive) | > 100 µM (inactive) | > 100 µM (inactive) | > 100 µM (inactive) | > 100 µM (inactive) | – | 2.59 µM (inactive) | – | > 100 µM (inactive) | – |
| COC(C)(C)[C@H](O)C(O)CC(C)[C@@H]1CCC23CC12CCC1[C@@]2(C)CCC(OC(C)=O)C(C)(C)C2CC(OC2OC(COC(C)=O)C(O)C(O)C2O)[C@]13C (stereo partly drawn) | 6.58 µM (inactive) | 3.76 µM (inactive) | 2.92 µM (inactive) | 1.86 µM | 3.29 µM (inactive) | 4.55 µM (inactive) | 4.56 µM (inactive) | 0.264 µM (active) | 3.21 µM (inactive) | 4.26 µM (inactive) | 3.8 µM (inactive) | 2.67 µM (inactive) | 2.79 µM (inactive) | – | 1.83 µM (inactive) | – | 2.99 µM (inactive) | – |
| CNc1ccc2c(c1)Cc1ccccc1-2 | 53 µM (inactive) | 35.2 µM (inactive) | 30.6 µM (inactive) | 15.3 µM | 26.8 µM (inactive) | 26.5 µM (inactive) | 25.4 µM (inactive) | 38.8 µM (inactive) | 47.2 µM (inactive) | 44.5 µM (inactive) | 52.6 µM (inactive) | 34.4 µM (inactive) | 50.9 µM (inactive) | 44.6 µM (inactive) | 21.9 µM (inactive) | > 100 µM (inactive) | 43.8 µM (inactive) | 24.1 µM (inactive) |
